Target: Phosphatidylinositol 4,5-bisphosphate 3-kinase catalytic subunit delta isoform (Homo sapiens) (UniProt O00329)
Assay: Inhibition of DNA-tagged human PIK3CD assessed as percent of control at 50000 nM by qPCR analysis relative to control
Set-up: scale not given: the % may be the effect or the level left

Phosphatidylinositol 4,5-bisphosphate 3-kinase catalytic subunit delta isoform (Homo sapiens), sequence (O00329 whole entry, canonical isoform): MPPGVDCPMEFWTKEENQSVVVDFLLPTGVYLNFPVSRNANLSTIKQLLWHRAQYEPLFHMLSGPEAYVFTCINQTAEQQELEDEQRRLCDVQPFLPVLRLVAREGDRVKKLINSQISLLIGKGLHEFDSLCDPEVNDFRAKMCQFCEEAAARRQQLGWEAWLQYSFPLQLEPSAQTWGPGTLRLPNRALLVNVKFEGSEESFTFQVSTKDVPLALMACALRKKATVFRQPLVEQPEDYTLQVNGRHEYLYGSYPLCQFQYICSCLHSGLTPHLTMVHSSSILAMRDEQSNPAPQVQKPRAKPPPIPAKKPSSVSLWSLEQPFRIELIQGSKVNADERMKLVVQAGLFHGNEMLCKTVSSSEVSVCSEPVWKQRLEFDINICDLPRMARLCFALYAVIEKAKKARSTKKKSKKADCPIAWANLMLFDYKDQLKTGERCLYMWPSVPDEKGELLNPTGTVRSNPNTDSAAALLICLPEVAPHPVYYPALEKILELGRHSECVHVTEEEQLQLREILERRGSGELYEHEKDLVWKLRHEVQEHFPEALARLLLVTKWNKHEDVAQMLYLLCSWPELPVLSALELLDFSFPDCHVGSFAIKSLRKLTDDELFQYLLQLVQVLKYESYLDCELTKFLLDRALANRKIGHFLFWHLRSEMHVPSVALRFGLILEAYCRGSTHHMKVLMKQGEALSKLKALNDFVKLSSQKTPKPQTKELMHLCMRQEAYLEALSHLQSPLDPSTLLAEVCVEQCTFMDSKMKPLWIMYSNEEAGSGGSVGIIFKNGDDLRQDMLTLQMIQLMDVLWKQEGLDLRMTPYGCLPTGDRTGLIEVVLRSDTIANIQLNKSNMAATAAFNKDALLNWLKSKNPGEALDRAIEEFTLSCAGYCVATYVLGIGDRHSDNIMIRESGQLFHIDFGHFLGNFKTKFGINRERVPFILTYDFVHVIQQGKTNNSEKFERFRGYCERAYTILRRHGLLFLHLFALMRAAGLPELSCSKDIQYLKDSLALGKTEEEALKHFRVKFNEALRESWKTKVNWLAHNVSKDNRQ

CN1C(=O)/C(=C2/C(=O)Nc3ccccc32)c2ccccc21
Activity: 95%
